# From patent US6090945A, “Tetrahydro-beta-carbolines” (Eli Lilly and Company, priority 1998, dated 2000)
# Where a name gives a salt, the structure may show the parent alone. Read-outs that look alike come from different tables or passages of the source.
# Columns and labels:
# 5-HT2 receptor = 5-HT2 receptor (Rattus norvegicus, UniProt P14842); assay: 5-HT2 radioligand binding assay ([3H]ketanserin displacement); set-up: species or system rat (Sprague-Dawley cerebral cortex)
# [1] = biological target: T1, cloned rat 5-HT2B receptor (Rattus norvegicus, UniProt P30994); assay: 5-HT2B radioligand binding ([3H]5-HT), cloned rat receptor; conditions: [3H]5-HT 2 nM, read-out: Rat 2B binding (IC50 converted to Ki)
# T1 construct: expressed in transfected cells
# T1 sequence (P30994 whole entry): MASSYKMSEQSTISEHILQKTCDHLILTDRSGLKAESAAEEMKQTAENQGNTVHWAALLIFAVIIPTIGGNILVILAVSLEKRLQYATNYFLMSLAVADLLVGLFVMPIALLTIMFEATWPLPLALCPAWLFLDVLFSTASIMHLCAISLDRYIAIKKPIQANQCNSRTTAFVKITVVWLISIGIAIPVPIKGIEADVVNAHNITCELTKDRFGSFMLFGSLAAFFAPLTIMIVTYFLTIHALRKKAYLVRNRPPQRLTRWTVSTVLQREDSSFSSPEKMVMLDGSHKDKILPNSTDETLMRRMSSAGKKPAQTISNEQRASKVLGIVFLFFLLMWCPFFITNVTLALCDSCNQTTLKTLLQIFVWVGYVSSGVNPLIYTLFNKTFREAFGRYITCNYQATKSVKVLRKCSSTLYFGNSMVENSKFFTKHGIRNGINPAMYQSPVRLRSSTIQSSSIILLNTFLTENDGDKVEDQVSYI
# Procedure: (§1) RAdioligand Binding Studies for 5-HT2 B:
# Membrane preparation from transformed cells. Suspension cells expressing the cloned rat 5-HT2B receptor were harvested by centrifugation at 200×g for 15 min at 4° C. […] Membranes for the binding assays were prepared by vortexing the pellet in 50 mM Tris-HCl, pH 7.4 (0.5×10^9 cells/30 ml). The tissue suspension was then centrifuged at 39,800×g for 10 min at 4° C. This procedure was repeated for a total of three washes, with a 10 minute incubation at 37° C. between the first and second wash.
# [^3 H]5-HT binding studies. Binding assays were automated using a Biomek 1000 (Beckman Instruments, Fullerton, Calif.) and were performed in triplicate in 0.8 ml total volume. Membrane suspension, 200 μl, (0.04-0.27 mg protein) and 200 μl of drug dilution in water were added to 400 μl of 67 mM Tris-HCl, pH 7.4, containing [^3 H]5-HT, pargyline, CaCl2, and L-ascorbic acid. Final concentrations of pargyline, CaCl2 and L-ascorbic acid were 10 μM, 3 mM and 0.1%, respectively. […] The amount of [^3 H]5-HT trapped on the filters was determined by liquid scintillation spectrometry (Ready Protein and Beckman LS 6000IC, Beckman Instruments, Fullerton, Calif.). For the saturation experiments, actual free radioligand concentrations were determined by sampling the supernatant of parallel saturation experiments in which bound radioactivity had been separated by centrifugation. […] Protein was determined by the method of Bradford, using bovine serum albumin as the standard.
# (§2) The Kd and Bmax values from the saturation assays were determined for best fit to a one-site or a two-site binding model using a partial F-test. […] The IC50 values from the competition assays, the binding parameters for the IP3 standard curve and the EC50 and Emax values from the IP3 assays were determined by nonlinear regression analysis of four parameter logistic equations (Systat, Systat Inc, Evanston, Ill.). […]
# Human 2B = Human 2B (Homo sapiens, UniProt P41595); assay: radioligand binding, human 2B; conditions: read-out: Human 2B binding (IC50 converted to Ki)
# Human 2B, sequence (P41595 whole entry): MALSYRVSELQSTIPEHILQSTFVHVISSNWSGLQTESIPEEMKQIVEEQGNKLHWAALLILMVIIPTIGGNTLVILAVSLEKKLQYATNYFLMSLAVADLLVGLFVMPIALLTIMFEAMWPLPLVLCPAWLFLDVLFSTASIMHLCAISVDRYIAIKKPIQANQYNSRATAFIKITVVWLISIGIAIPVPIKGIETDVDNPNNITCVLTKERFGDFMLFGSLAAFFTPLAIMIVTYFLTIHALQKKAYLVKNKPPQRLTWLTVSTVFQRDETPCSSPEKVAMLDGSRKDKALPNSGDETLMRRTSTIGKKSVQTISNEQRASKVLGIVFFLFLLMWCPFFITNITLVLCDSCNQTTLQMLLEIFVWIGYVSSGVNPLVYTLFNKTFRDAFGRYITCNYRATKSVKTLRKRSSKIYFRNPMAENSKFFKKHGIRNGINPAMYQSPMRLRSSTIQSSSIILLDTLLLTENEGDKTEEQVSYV
# Procedure: as §1
# [^3 H]5-HT binding studies. Binding assays were automated using a Biomek 1000 (Beckman Instruments, Fullerton, Calif.) and were performed in triplicate in 0.8 ml total volume. Membrane suspension, 200 μl, (0.04-0.27 mg protein) and 200 μl of drug dilution in water were added to 400 μl of 67 mM Tris-HCl, pH 7.4, containing [^3 H]5-HT, pargyline, CaCl2, and L-ascorbic acid. Final concentrations of pargyline, CaCl2 and L-ascorbic acid were 10 μM, 3 mM and 0.1%, respectively. Tubes were incubated at 37° C. for 15 min or at 0° C. for 2 hours (binding equilibria were verified for both of these conditions), then rapidly filtered using a Brandel cell harvester (Model MB-48R; Brandel, Gaithersburg, Md.) through Whatman GF/B filters which had been presoaked in 0.5% polyethylenimine and precooled with ice-cold 50 mM Tris-HCl, pH 7.4. The filters were then washed rapidly four times with one ml ice-cold 50 mM Tris-HCl, pH 7.4. The amount of [^3 H]5-HT trapped on the filters was determined by liquid scintillation spectrometry (Ready Protein and Beckman LS 6000IC, Beckman Instruments, Fullerton, Calif.). For the saturation experiments, actual free radioligand concentrations were determined by sampling the supernatant of parallel saturation experiments in which bound radioactivity had been separated by centrifugation. […] 5-HT, 10 μM, or 1-naphthylpiperazine (1-NP), 10 μM, defined nonspecific binding. […] Protein was determined by the method of Bradford, using bovine serum albumin as the standard.
# as §2
# Human 2A = Human 2A (Homo sapiens, UniProt P28223); assay: radioligand binding, human 2A; conditions: read-out: Human 2A binding (IC50 converted to Ki)
# Human 2A, sequence (P28223 whole entry): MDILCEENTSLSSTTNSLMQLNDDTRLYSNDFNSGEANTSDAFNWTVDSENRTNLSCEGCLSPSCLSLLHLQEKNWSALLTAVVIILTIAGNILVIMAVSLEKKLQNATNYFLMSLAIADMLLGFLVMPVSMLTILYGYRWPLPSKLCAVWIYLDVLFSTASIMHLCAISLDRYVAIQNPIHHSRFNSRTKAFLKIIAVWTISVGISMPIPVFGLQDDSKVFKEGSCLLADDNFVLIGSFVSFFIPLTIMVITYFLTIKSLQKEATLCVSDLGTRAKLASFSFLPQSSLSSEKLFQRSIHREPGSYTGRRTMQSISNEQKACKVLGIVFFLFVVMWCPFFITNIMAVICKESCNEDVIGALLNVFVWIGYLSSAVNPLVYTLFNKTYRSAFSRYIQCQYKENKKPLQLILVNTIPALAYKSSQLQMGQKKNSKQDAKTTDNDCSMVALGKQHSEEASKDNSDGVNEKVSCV
# Procedure: The Kd and Bmax values from the saturation assays were determined for best fit to a one-site or a two-site binding model using a partial F-test. De Lean, A., A. A. Hancock, and R. J. Lefkowitz, Mol. Pharmacol. 21: 5-16 (1981). The following equation was used for a one-site binding model, [formula] where Bound=amount of [^3 H]5-HT specifically bound, Bmax =maximum number of binding sites, Kd =equilibrium dissociation constant and [L]=free concentration of [^3 H]5-HT, or a two-site binding model, [formula] where Bound=amount of [^3 H]5-HT specifically bound, Bmax1 =maximum number of high affinity binding sites, Bmax2 =maximum number of low affinity binding sites, Kd1 =equilibrium dissociation constant for the high affinity site, Kd2 =equilibrium dissociation constant for the low affinity site and [L]=free concentration of [^3 H]5-HT. The IC50 values from the competition assays, the binding parameters for the IP3 standard curve and the EC50 and Emax values from the IP3 assays were determined by nonlinear regression analysis of four parameter logistic equations (Systat, Systat Inc, Evanston, Ill.). De Lean, A., A. A. Hancock, and R. J. Lefkowitz, Mol. Pharmacol., 21: 5-16 (1981). The IC50 values were converted to Ki values using the Cheng-Prusoff equation. Cheng, Y., and W. H. Prusoff, Biochem. Pharmacol., 22: 3099-3108 (1973).
# 5-HT1c receptor [2] = biological target: T2, 5-HT1c receptor (Bos taurus, UniProt A0AAA9SBU1); assay: 5-HT1c radioligand binding assay ([3H]mesulergine displacement); conditions: read-out: 5HT1C IC50 (binding displacement); choroid plexus; tritiated mesulergine 2.0 nM; 37° C., 15 minutes
# T2 sequence (A0AAA9SBU1 33-457): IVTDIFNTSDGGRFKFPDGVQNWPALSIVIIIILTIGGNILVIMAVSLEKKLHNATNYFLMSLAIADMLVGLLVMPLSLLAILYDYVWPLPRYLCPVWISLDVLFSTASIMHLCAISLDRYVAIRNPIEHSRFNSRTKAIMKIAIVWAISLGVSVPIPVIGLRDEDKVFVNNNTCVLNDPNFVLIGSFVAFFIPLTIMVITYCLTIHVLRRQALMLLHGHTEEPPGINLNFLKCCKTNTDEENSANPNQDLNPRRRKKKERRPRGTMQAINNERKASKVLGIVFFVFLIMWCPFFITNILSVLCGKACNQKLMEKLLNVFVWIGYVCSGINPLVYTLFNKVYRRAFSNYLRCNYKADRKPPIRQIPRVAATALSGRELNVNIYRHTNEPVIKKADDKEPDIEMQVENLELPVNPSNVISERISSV
# Procedure: I. Assay for 5-HT1c Affinity
# (§3) Beef brain was removed immediately after slaughter, and choroid plexus were dissected over ice. […] Tissues were homogenized in 9 volumes of 0.32 mol/L sucrose and centrifuged at 1,000×g for 10 minutes. The supernatant was centrifuged at 17,000×g for 20 minutes. The pellet was suspended in 100 volumes of 50 mM Tris-HCl (pH7.4), incubated at 37° C. for 10 minutes and centrifuged at 50,000×g for 10 minutes, and the process was repeated three times. The final pellets were frozen at -70° C. and used within 2 weeks. Pellets were rehydrated with physiological buffer prior to use.
# (§4) The reactions were terminated by rapid filtration, (Brandel Cell Harvestor), through Whatman GF/B glass filters that had been presoaked in Tris buffer pH 7.4. The filters were then washed 2 times with 5 ml of ice cold Tris buffer pH 7.4. Washed filters were placed in scintillation vials and 10 ml RedySolv, (Brandel), was added and samples were counted in a Searle D-300 beta counter. Means and standard error statistics were calculated for triplicate experimental determinations in certain cases. Mean values were obtained from three or more separate determinations. The incubation time for the reaction mixture was 15 minutes at 37° C.
# 5-HT1c receptor [3] = assay: as above; conditions: versus 5-HT2, as shown by Table II
# Procedure: I. Assay for 5-HT1c Affinity
# as §3, §4
# [4] = rat cerebral cortex, tritiated ketanserin 1 nM, 37° C., read-out: 5HT2 IC50 (binding displacement)
# 5-HT2 receptor, sequence (P14842 whole entry): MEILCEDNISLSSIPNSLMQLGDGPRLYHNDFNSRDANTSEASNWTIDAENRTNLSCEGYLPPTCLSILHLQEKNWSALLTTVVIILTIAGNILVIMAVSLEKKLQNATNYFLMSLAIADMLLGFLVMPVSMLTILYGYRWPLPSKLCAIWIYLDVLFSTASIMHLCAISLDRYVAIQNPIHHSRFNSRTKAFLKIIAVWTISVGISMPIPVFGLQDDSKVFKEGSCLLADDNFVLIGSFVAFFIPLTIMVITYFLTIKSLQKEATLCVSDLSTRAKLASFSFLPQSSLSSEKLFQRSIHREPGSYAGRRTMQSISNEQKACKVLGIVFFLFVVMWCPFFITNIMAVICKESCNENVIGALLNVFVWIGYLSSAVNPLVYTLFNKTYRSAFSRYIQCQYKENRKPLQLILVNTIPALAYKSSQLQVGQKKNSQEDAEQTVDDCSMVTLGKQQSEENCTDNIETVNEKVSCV
Compound,IC50 (5-HT2 receptor; [4]),Ki [1],Ki (Human 2B),Ki (Human 2A),IC50 (5-HT1c receptor [2]),"5-HT1c selectivity (low IC50 in 5-HT1c assay, higher IC50 in 5-HT2 assay) (5-HT1c receptor [3])",IC50 (5-HT2 receptor)
COc1ccc([C@@H](C)[C@@H]2NCCc3c2[nH]c2ccc(C)cc32)cc1OC (relative stereo) [Example 40],293 nM,5.61 nM,1.4 nM,44.5 nM,171 nM,–,–
"COc1ccc([C@@H](C)[C@@H]2NCCc3c2[nH]c2cc(C)c(C)cc32)cc1OC (relative stereo) [Example 41, (±) 6,7-dimethyl-1-[(3,4-dimethoxyphenyl)-1-ethyl]-1,2,3,4-tetrahydro-9H-pyrido[3,4-b]indole (Z)-2-butenedioate]",173 nM,6.42 nM,2.01 nM,23.1 nM,127 nM,–,–
"CC[C@H](c1ccc(OC)c(OC)c1)[C@@H]1NCCc2c1[nH]c1ccc(C)cc21 (relative stereo) [Example 43, (±) 6-methyl-1-[(3,4-dimethoxyphenyl)-1-propyl]-1,2,3,4-tetrahydro-9H-pyrido[3,4-b]indole (Z)-2-butenedioate]",178 nM,–,0.87 nM,17.5 nM,139 nM,–,–
"COc1ccc(CC2NCCc3c2[nH]c2c(F)cc(F)cc32)cc1OC (centres unmarked) [Example 6, 6,8-difluoro-1-[(3,4-dimethoxyphenyl)-methyl]-1,2,3,4-tetrahydro-9H-pyrido[3,4-b]indole]",168 nM,–,–,–,43 nM,particularly 5-HT1c selective,–
"COc1ccc(CC2NCCc3c2[nH]c2c(Br)c(C)ccc32)cc1OC.Cl (centres unmarked) [Example 7, 7-methyl-8-bromo-1-[(3,4-dimethoxyphenyl)-methyl]-1,2,3,4-tetrahydro-9H-pyrido[3,4-b]indole hydrochloride]",–,–,–,–,5.1 nM,particularly 5-HT1c selective,> 100 nM
"COc1ccc(CC2NCCc3c2[nH]c2c3ccc3ccccc32)cc1OC (centres unmarked) [Example 10, 7,8,9,10-tetrahydro-10-[(3,4-dimethoxyphenyl)methyl]-11H-benzo [g]pyrido[3,4-b]indole]",219 nM,–,–,–,43 nM,particularly 5-HT1c selective,–
"COc1ccc(CC2NCCc3c2[nH]c2ccc(C(C)C)cc32)cc1OC (centres unmarked) [Example 13, 6-(1-methylethyl)-1,2,3,4-tetrahydro-1-[(3,4-dimethoxyphenyl)methyl]-9H-pyrido[3,4b]indole]",433 nM,–,–,–,48 nM,particularly 5-HT1c selective,–
"COc1ccc(CC2NCCc3c2[nH]c2cc(C)cc(C)c32)cc1OC (centres unmarked) [Example 15, 5,7-dimethyl-1,2,3,4-tetrahydro-1-[(3,4-dimethoxyphenyl)methyl]-9H-pyrido[3,4b]indole hydrochloride]",> 100 nM,–,–,–,14 nM,particularly 5-HT1c selective,–
"COc1ccc(CC2NCCc3c2[nH]c2cc(C)c(C)cc32)cc1OC (centres unmarked) [Example 16, 6,7-dimethyl-1,2,3,4-tetrahydro-1-[(3,4-dimethoxyphenyl)methyl]-9H-pyrido[3,4b]indole]",2110 nM,–,–,–,63 nM,particularly 5-HT1c selective,–
"COc1ccc(CC2NCCc3c2[nH]c2ccc(C)cc32)c(OC)c1OC (centres unmarked) [Example 22, 6-methyl-1-[(2,3,4-trimethoxyphenyl)-methyl]-1,2,3,4-tetrahydro-9H-pyrido[3,4-b]indole hydrochloride]",–,5.39 nM,–,–,30 nM,–,1420 nM
